This note sets out measurements from US20120309812A1 (SYNGENTA CROP PROTECTION LLC, priority 2010, published 2012).

For one data set, the system named is Myzus persicae. In words: Myzus persicae (Green peach aphid) sunflower leaf disc spray test. It is filed as in vivo. The note with it: application rate 200 ppm, sprayed sunflower leaf discs, aphid population of mixed ages, mortality 6 DAT. As for the experimental part: Myzus persicae (Green peach aphid):
Sunflower leaf discs were placed on agar in a 24-well microtiter plate and sprayed with test solutions at an application rate of 200 ppm. After drying, the leaf discs were infested with an aphid population of mixed ages. After an incubation period of 6 DAT, samples were checked for mortality. The following compound gave at least 80% control of Myzus persicae: A3.

`COc1c(NC(=O)c2ccccc2)cccc1C(=O)Nc1c(Cl)cc(C(F)(c2ccc(Cl)cc2)C(F)(F)F)cc1Cl` (centres unmarked) [A3]: the “control of Myzus persicae” value in the data set on Myzus persicae was “at least 80%”.
With `O=C(Nc1c(Cl)cc(C(F)(c2ccsc2)C(F)(F)F)cc1Cl)c1cccc(NC(=O)c2c(F)cc(F)cc2F)c1F` (centres unmarked) [A5, N-{3-[2,6-Dichloro-4-(2,2,2-trifluoro-1-fluoro-1-thiophen-3-ylethyl)-phenylcarbamoyl]-2-fluorophenyl}-2,4,6-trifluorobenzamide], the melting point (commonly the temperature, or range, at which the solid turns liquid) lay within 197 to 199 °C.
